Reference: publication PMC9090415, “Discovery of small molecule inhibitors of Plasmodium falciparum apicoplast DNA polymerase” (Journal of Enzyme Inhibition and Medicinal Chemistry, 2022)
pIC50: −log10 of the molar value.

Target: P. falciparum apicoplast DNA polymerase (Pf-apPOL) (Plasmodium falciparum, UniProt Q8ILY1)
Test: Fluorescence-based high-throughput DNA polymerase assay (molecular beacon), primary screen and dose-response
Type: biochemical
Conditions: for pIC50: supplemental file 2, sheet IC50 nontoxic compounds, Pf-apPOL; for DNA Pol: 90 min, 10 µM
Method in brief: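 Single-point screening used 10 µM compound with 20 nM polymerase, 20 nM hairpin substrate and 6 µM dNTPs for 90 min at 25 °C. Confirmatory titrations (2.5–80 µM) followed fluorescence at three times, and IC50 was derived from a fit including a cooperativity term n.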

P. falciparum apicoplast DNA polymerase (Pf-apPOL), sequence (Q8ILY1 entry or part of it): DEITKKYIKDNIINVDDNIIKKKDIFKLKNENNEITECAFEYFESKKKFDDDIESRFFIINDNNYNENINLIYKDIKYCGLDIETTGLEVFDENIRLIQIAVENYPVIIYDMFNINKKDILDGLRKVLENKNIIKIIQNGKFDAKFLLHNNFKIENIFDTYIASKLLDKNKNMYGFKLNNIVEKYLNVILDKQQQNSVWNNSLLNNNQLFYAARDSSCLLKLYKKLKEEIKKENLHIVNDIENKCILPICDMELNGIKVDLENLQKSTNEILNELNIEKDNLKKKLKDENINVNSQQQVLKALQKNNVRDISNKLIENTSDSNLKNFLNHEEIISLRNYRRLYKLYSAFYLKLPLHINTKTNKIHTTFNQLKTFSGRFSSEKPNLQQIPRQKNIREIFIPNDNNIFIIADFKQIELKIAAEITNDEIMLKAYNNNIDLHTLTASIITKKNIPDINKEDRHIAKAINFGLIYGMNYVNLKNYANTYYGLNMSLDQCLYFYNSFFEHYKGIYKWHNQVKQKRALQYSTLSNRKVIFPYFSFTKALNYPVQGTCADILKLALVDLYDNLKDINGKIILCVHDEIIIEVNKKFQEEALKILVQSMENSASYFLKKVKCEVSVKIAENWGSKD

`COc1ccc2c(c1)C(c1ccccc1OC)CC(=O)O2` (stereo not drawn) [Molecule 38] was tested, and the pIC50 was 4.95.
In the case of `CCCCCCCCCCCC1SCC(C(=O)O)N1C(C)=O` (stereo not drawn) [Molecule 72], the “% inhibition Apo pol 10'” value (DRC-1, concentration 2.5) was 3.482%, the “% inhibition Apo pol 10'” value (DRC-1, concentration 5) was 5.699% and the “% inhibition Apo pol 10'” value (DRC-1, concentration 10) was 15.2619%. For the same compound, the “% inhibition Apo pol 10'” value (DRC-1, concentration 20) was 24.1814%, the “% inhibition Apo pol 10'” value (DRC-1, concentration 40) was 35.0794% and the “% inhibition Apo pol 10'” value (DRC-1, concentration 80) was 89.6133%. The “% inhibition Apol 90'” value (DRC-1, concentration 2.5) was 2.632%, the “% inhibition Apol 90'” value (DRC-1, concentration 5) was 5.518% and the “% inhibition Apol 90'” value (DRC-1, concentration 10) was 12.9803%. For the same compound, the “% inhibition Apol 90'” value (DRC-1, concentration 20) was 20.4329%, the “% inhibition Apol 90'” value (DRC-1, concentration 40) was 28.5438% and the “% inhibition Apol 90'” value (DRC-1, concentration 80) was 88.679%. The “% inhibition apPOL 180'” value (DRC-1, concentration 2.5) was -2.715%, the “% inhibition apPOL 180'” value (DRC-1, concentration 5) was -0.6083% and the “% inhibition apPOL 180'” value (DRC-1, concentration 10) was 5.5577%. The “% inhibition apPOL 180'” value (DRC-1, concentration 20) was 11.4894%, the “% inhibition apPOL 180'” value (DRC-1, concentration 40) was 17.8626% and the “% inhibition apPOL 180'” value (DRC-1, concentration 80) was 86.0518%. The “% inhibition Apo pol 5'” value (DRC-2, concentration 2.5) was 13%, the “% inhibition Apo pol 5'” value (DRC-2, concentration 5) was 16% and the “% inhibition Apo pol 5'” value (DRC-2, concentration 10) was 26%. The “% inhibition Apo pol 5'” value (DRC-2, concentration 20) was 38%, the “% inhibition Apo pol 5'” value (DRC-2, concentration 40) was 54% and the “% inhibition Apo pol 5'” value (DRC-2, concentration 80) was 59%. The “% inhibition Apol 40'” value (DRC-2, concentration 2.5) was 10%, the “% inhibition Apol 40'” value (DRC-2, concentration 5) was 15% and the “% inhibition Apol 40'” value (DRC-2, concentration 10) was 29%. For the same compound, the “% inhibition Apol 40'” value (DRC-2, concentration 20) was 44%, the “% inhibition Apol 40'” value (DRC-2, concentration 40) was 65% and the “% inhibition Apol 40'” value (DRC-2, concentration 80) was 76%. The “% inhibition ApPOL 90'” value (DRC-2, concentration 2.5) was 6%, the “% inhibition ApPOL 90'” value (DRC-2, concentration 5) was 13% and the “% inhibition ApPOL 90'” value (DRC-2, concentration 10) was 26%. The “% inhibition ApPOL 90'” value (DRC-2, concentration 20) was 43%, the “% inhibition ApPOL 90'” value (DRC-2, concentration 40) was 67% and the “% inhibition ApPOL 90'” value (DRC-2, concentration 80) was 81%. For the same compound, the “% inhibition apPOL 180'” value (DRC-2, concentration 2.5) was 0.516%, the “% inhibition apPOL 180'” value (DRC-2, concentration 5) was 5% and the “% inhibition apPOL 180'” value (DRC-2, concentration 10) was 17%. For the same compound, the “% inhibition apPOL 180'” value (DRC-2, concentration 20) was 34%, the “% inhibition apPOL 180'” value (DRC-2, concentration 40) was 64% and the “% inhibition apPOL 180'” value (DRC-2, concentration 80) was 84%. The “% inhibition Apo pol 5'” value (conc. 2.5, DRC-2) was 13%, the “% inhibition ApPOL 90'” value (conc. 5, DRC-2) was 13% and the “% inhibition Apo pol 5'” value (conc. 10, DRC-2) was 26%. The “% inhibition ApPOL 90'” value (conc. 10, DRC-2) was 26%, the “DNA Pol” value (primary screen value by plate and well) was 90 and the “DNA Pol” value (primary screen value of the 186 hits, unit not given) was 90. It also gave a pIC50 of 4.31.
`O=C(c1ccccc1)N1CCc2c(nc3cc(-c4ccccc4)[nH]n3c2=O)C1` [Molecule 30] gave a pIC50 of 5.02.
